Test results reported in publication PMC8565993 (International journal for parasitology, 2020).
Like-named read-outs stand apart in the source and are kept apart here. Blank lines part the entries; values can stand above or below the molecule they belong to.

Tests used:
[1] = cited from earlier work
[2] = Toxicity and safety in calves; format: in vivo, calf; settings: 3X maximal therapeutic doses; unpublished data
hERG [3] = target: T1, hERG (Homo sapiens, UniProt Q12809); test: hERG thallium flux assay
T1 sequence (Q12809 whole entry): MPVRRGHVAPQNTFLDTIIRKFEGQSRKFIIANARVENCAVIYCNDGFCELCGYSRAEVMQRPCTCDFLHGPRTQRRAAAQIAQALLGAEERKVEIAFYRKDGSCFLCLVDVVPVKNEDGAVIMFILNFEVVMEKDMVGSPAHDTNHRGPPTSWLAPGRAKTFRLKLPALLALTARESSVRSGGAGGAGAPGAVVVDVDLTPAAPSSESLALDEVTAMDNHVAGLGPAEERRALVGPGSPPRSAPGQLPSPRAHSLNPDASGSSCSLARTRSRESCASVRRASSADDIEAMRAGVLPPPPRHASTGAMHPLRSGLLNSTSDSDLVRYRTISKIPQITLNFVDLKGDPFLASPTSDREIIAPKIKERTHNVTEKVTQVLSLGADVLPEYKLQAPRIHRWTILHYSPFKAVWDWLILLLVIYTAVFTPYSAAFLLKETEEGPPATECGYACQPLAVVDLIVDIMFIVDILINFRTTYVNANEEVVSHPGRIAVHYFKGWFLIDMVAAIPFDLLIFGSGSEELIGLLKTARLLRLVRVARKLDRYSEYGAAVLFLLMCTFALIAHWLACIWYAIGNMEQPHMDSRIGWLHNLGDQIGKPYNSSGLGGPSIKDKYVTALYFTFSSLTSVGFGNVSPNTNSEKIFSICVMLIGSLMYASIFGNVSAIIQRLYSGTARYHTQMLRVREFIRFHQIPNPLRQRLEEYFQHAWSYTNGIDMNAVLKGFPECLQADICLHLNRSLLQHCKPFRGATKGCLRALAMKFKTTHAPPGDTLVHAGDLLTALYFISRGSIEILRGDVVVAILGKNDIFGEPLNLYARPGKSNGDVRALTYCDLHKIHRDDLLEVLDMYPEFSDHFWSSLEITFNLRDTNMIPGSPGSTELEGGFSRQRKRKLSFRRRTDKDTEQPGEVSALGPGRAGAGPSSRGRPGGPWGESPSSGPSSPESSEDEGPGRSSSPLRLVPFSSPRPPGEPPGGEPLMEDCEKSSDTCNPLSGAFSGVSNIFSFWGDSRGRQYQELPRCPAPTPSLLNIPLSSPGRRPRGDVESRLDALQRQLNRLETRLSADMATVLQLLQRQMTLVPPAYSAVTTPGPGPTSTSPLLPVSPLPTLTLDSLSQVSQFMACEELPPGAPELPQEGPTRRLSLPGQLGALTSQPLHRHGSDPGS

[4] = Plasma exposure after oral dosing in mice; format: in vivo, mouse; settings: at the toxic dose of the same table row
Cryptosporidium parvum [5] = test: Cryptosporidium parvum in vitro growth inhibition; format: cell-based; settings: read-out: Cryptosporidium parvum EC50; 50% reduction in growth
Cryptosporidium parvum [6] = test: C. parvum; format: in vivo, mouse; settings: >2 log unit reduction in infection
hERG [7] = target: T1, hERG; test: hERG automated patch clamp; format: cell-based; settings: read-out: hERG Qpatch IC50
CpCDPK1 = target: T2, CpCDPK1 (Cryptosporidium parvum, UniProt A3FQ16); format: biochemical; settings: read-out: CpCDPK1 IC50
T2 sequence (A3FQ16 1-538): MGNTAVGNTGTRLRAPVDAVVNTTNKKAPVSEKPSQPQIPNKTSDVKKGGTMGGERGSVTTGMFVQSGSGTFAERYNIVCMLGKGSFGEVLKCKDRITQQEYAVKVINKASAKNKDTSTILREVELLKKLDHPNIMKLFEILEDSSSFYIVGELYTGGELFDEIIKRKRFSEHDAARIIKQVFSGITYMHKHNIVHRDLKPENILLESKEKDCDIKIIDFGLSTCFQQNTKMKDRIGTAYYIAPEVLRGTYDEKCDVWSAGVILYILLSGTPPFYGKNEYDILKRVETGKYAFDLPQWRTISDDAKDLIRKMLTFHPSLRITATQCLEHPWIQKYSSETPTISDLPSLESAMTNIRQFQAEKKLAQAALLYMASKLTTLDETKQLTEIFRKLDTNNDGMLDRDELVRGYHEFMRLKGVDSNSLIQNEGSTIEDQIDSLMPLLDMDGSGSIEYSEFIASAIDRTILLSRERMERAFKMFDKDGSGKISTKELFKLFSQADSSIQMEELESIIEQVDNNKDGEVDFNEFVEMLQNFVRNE

TgCDPK1 = target: T3, TgCDPK1 (Toxoplasma gondii, UniProt Q9BJF5); format: biochemical; settings: read-out: TgCDPK1 IC50
T3 sequence (Q9BJF5 1-507): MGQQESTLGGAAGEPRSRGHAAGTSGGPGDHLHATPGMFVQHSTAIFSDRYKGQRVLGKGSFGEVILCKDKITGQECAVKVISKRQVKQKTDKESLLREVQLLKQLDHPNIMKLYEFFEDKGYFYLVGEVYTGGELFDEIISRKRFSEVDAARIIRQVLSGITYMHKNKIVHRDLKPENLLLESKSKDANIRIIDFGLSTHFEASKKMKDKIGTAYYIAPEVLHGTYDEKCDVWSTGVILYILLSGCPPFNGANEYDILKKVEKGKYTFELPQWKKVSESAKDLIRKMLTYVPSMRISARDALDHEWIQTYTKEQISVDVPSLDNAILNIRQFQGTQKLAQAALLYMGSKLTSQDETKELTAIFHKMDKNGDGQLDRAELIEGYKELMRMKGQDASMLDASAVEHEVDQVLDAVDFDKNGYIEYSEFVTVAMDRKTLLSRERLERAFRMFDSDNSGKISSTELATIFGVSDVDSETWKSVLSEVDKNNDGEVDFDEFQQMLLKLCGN

[8] = cited from earlier work; remark: listed apart in the source
[9] = QD in mice
[10] = format: in vivo
Cryptosporidium parvum [11] = settings: ref Arnold et al., cited from earlier work
Toxoplasma gondii [12] = test: Toxoplasma gondii in vitro growth inhibition; format: cell-based; settings: read-out: Toxoplasma gondii EC50; 50% reduction in growth
P-glycoprotein (P-gp) = settings: compared with efficacious compounds such as BKI-1369; ref Arnold et al., 2019; cited from earlier work
[13] = format: in vivo; settings: mouse pregnancy safety dose 50 mg/kg
Human PKD3 = target: T4, Human PKD3 (Homo sapiens, UniProt O94806); test: Human PKD3 kinase inhibition; format: biochemical; settings: read-out: Human PKD3 IC50
T4 sequence (O94806 1-890): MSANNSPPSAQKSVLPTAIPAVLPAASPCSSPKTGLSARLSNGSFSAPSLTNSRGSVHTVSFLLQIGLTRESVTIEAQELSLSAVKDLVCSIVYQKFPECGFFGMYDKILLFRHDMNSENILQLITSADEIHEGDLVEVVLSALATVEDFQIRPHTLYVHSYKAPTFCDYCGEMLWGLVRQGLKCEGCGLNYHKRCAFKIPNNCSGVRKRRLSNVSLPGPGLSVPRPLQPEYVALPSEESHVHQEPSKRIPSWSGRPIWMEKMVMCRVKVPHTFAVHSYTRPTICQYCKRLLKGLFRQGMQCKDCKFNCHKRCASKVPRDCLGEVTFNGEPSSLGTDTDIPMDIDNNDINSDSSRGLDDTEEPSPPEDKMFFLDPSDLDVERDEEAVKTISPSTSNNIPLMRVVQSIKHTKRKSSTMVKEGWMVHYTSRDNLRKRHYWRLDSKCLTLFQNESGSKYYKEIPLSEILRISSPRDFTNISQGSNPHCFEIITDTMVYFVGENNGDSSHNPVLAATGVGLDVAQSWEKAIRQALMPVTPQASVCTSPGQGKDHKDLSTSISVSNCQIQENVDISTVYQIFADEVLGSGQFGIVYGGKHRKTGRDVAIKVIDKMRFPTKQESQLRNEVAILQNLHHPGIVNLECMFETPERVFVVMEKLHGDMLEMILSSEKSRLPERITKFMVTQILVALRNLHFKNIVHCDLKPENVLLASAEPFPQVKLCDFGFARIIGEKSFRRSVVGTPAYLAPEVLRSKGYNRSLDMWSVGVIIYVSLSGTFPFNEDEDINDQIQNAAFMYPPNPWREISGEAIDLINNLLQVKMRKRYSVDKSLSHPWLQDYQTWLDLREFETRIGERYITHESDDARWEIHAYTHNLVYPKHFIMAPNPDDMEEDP

Toxoplasma gondii [14] = test: T. gondii mouse efficacy model; format: in vivo; settings: QD
[15] = mice, 30 mg/kg oral dose, ref Hulverson et al., 2017a, 30 mg/kg
[16] = mice, 30 mg/kg oral dose, ref Hulverson et al., 2017a, listed as 1369, 30 mg/kg

Compound: CCOc1ccc2cc(-c3nn(CC4CCN(C)CC4)c4ncnc(N)c34)ccc2n1 [BKI-1369]
Observed maximum gastrointestinal tissue exposure after single dose, ascending colon [1, 15]: 23 µM
Observed maximum gastrointestinal tissue exposure after single dose, cecum [1, 15]: 20 µM
Observed maximum gastrointestinal tissue exposure after single dose, duodenum [1, 15]: > 76 µM
Observed maximum gastrointestinal tissue exposure after single dose, jejunum/ileum [1, 15]: 39 µM
Observed maximum gastrointestinal tissue exposure after single dose, cecum [1, 16]: 20 ± 6 µM
Observed maximum gastrointestinal tissue exposure after single dose, duodenum [1, 16]: 76 ± 41 µM
Cardiovascular effects in calves [2]: have not been detected
Thallium flux IC50 relative to that of BKI-1294 (hERG [3]; higher IC50 than BKI-1294): > 10 fold
Observed maximum plasma exposure at toxic dose [4]: 8.3 ± 0.2 µM
EC50 (Cryptosporidium parvum [5]): 2500 nM
C. parvum efficacious dose in mice (Cryptosporidium parvum [6]; QD): 30 mg/kg QD
IC50 (hERG [7]): ~1000 nM
IC50 (hERG [7]; listed as 1369): 970 nM
IC50 (CpCDPK1): 0.9 nM
IC50 (TgCDPK1): 6.1 nM
Toxicity on repeated dosing ([8]; 50 mg/kg for 5 days, ref Hulverson et al., 2017a): multiple signs of toxicity
Daily dose with no signs of GI side effects ([8]; mouse, in vivo): up to 150 mg/kg
Dose at which toxicity was observed [9]: 300 (QD in mice) mg/kg
Dog CV safety: ↓dP/dt (plasma conc.) ([10]; anesthetized dog, decreased cardiac contractility): 9.3 µM
Dog CV safety: ↑SVR (plasma conc.) ([10]; anesthetized dog, increased systemic vascular resistance): 129 µM
Dog CV safety: complete CV collapse (plasma conc.) ([10]; dog, in vivo): > 50 µM
Dog CV safety: ↑QTcV (plasma conc.) ([10]; dog, in vivo): ~1.7 µM
Dog CV safety: ↓CO (plasma conc.) ([10]; dog, in vivo): 9.3 µM
Dog CV safety: ↓HR (plasma conc.) ([10]; dog, in vivo): 50 µM

Compound: CCOc1ccc2cc(-c3nn(CC4CCN(C)CC4)c4ncnc(N)c34)ccc2c1 [BKI-1294]
Levels reached in tissues of the GI tract ([1]; infected mice, ref Arnold et al., 2017): reached high levels in all tissues of the GI tract
IC50 (hERG [3]): 790 nM
hERG Thallium Flux IC50 (hERG [3]): submicromolar
EC50 (Cryptosporidium parvum [5]): 2220 nM
C. parvum efficacious dose in mice (Cryptosporidium parvum [6]; QD): 100 mg/kg QD
Efficacy against Cryptosporidium infection in mice (Cryptosporidium parvum [11]; 2017): significantly reduced infection
EC50 (Toxoplasma gondii [12]): 137 nM

Compound: CCOc1ccc2cc(-c3nn(CC4CCNCC4)c4ncnc(N)c34)ccc2n1 [BKI-1318]
Efficacy against Cryptosporidium when the P-gp pumps were inhibited (Cryptosporidium parvum [11]; P-gp pumps inhibited, 2019): greatly improved
Efficacy against Cryptosporidium (Cryptosporidium parvum [11]; 2019): failed to be efficacious
Efflux ratio (P-glycoprotein (P-gp)): much higher efflux ratio

EC50 (Cryptosporidium parvum [5]): 1210 nM
IC50 (CpCDPK1): 2.8 nM
Compound: CCOc1ccc2cc(-c3nn(C4CCOCC4)c(N)c3C(N)=O)ccc2n1 [BKI-1841]
EC50 (Toxoplasma gondii [12]): 130 nM
IC50 (TgCDPK1): 30.1 nM

Compound: CCOc1ccc2cc(-c3nn(C(C)(C)C)c(N)c3C(N)=O)cnc2c1 [BKI-1517]
Fertility (pregnant dams) [13]: 2 of 7
Total pups born [13]: 0
IC50 (hERG [3]): > 30000 nM
EC50 (Cryptosporidium parvum [5]): 649 nM
C. parvum efficacious dose in mice (Cryptosporidium parvum [6]; BID): 30 mg/kg BID
IC50 (hERG [7]): > 16700 nM
EC50 (Toxoplasma gondii [12]): 257 nM
IC50 (Human PKD3): 1110 nM
T. gondii efficacious dose in mice (Toxoplasma gondii [14]; >2 log unit reduction in infection): 60 mg/kg QD
T. gondii efficacious dose in mice (Toxoplasma gondii [14]; ≥2 log reduction in infection): 60 mg/kg QD
